Non-standard residues stand in square brackets, D forms with d. Residues, ends and D or L forms follow the SMILES beside them. Nva = CCC[C@H](N)C(=O)O
How the values were obtained:
[1] = biological target: T1, AdipoR2 (Homo sapiens, UniProt Q86V24); test: HTRF binding, AdipoR2 overexpression HEK293 cells; settings: in words
T1 construct: His; host or cells: HEK293
T1 sequence (Q86V24 1-386): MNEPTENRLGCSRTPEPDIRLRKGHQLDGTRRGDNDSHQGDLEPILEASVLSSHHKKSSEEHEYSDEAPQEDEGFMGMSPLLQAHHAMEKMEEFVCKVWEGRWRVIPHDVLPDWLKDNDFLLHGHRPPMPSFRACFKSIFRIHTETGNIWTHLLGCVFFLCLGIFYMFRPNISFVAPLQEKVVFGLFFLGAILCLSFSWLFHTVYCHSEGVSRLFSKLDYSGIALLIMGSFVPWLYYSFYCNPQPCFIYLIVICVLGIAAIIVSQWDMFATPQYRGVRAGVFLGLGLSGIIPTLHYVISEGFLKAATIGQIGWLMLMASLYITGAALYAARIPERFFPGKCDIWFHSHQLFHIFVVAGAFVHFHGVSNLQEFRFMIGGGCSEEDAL
Procedure: The expression plasmid of AdipoR1 and AdipoR2 were synthesized and codon optimized by Genescript (Nanjing, China) for their expression in HEK293 cell line. The concentration of FITC-JT003 was 0, 0.1, 0.25, 0.5, 1, 2.5 or 5 μM respectively. Unlabeled peptide JT003 was used as the control to measure the non-specific signal. 10E4 AdipoR1 and AdipoR2 overexpression cells, anti-His-Tb (ThermoFisher Scientific, USA) and JT003-FITC were added into a 384-well plate, with a total volume of 25μl. The mixtures were incubated at room temperature for 30 min in the dark. Fluorescent values at 520 nm and 620 nm were measured for Kd calculation.

[2] = test system: PA induced HepG2 cells; test: Mitochondrial content assay (MitoTracker), PA induced HepG2; assay type: cell-based, human; settings: HepG2, PA + 200 μM JT003; in words
Procedure: 60–70% confluent LX2 cells and PA induced HepG2 cells were washed with PBS twice and incubated with 100 nM MitoTracker Green FM (YeSan, China) at 37 °C for 30 min For fluorescence intensity assay, cells were harvested by using trypsin/EDTA (ThermoFisher Scientific, USA) and resuspended in PBS. The excitation and emission wavelengths were 490 and 516 nm, respectively, and the intensity values corrected for total protein level (mg ml^−1). For mitochondrial visualized assay, after incubated with MitoTracker Green FM, the adherent cells were washed with PBS and a single in-focus optical section was acquired with confocal microscopy (Olympus, Japan). The nucleus was stained with Hochest33342 (ThermoFisher Scientific, USA). For every section n = 50 cells, images were analyzed and quantified by ImageJ.

CCC[C@H](NC(=O)[C@@H]1CCCN1)C(=O)N[C@@H](CC(C)C)C(=O)N[C@@H](Cc1ccc(O)cc1)C(=O)N[C@@H](Cc1ccc(O)cc1)C(=O)N[C@@H](Cc1ccccc1)C(=O)N[C@@H](C)C(N)=O [JT003] (H-P[Nva]LYYFA-NH2)
Kd value for AdipoR2 compared to JT006 and ADP355 [1]: significantly lower Kd value
mitochondrial content / biogenesis in PA induced HepG2 [2]: mitochondrial biogenesis was improved
